Earlier results in US9374973B2, “Grass endophytes” (GRASSLANZ TECHNOLOGY LTD, priority 2003, dated 2016).

Tests used:
[1] = tested on: grazing sheep, cattle, deer and horses
[2] = tested on: black beetle (Heteronychus arator); settings: in vivo
[3] = tested on: Argentine stem weevil (Listronotus bonariensis); settings: in vivo

CC(C)[C@H]1C(=O)N2CCC[C@H]2[C@]2(O)O[C@@](C)(NC(=O)[C@@H]3C=C4c5cccc6[nH]cc(c56)C[C@H]4N(C)C3)C(=O)N12 [Ergovaline]
Concentration in ryegrass pastures likely to elicit hyperthermia and depressed prolactin responses ([1]; bovine, in vivo): above 0.5 ppm | Effect on black beetle [2]: deterrent

CC(C)=C[C@H]1O[C@H]2[C@H]3O[C@@]34[C@H](CC[C@@]3(C)[C@@]4(O)CC[C@H]4Cc5c([nH]c6ccc7c(c56)C[C@@H]5[C@@H](C7=O)C(C)(C)OC5(C)C)[C@@]43C)O[C@@H]2C(C)(C)O1 [Lolitrem B]
Herbage concentration that may result in clinical symptoms of ryegrass staggers ([1]; grazing sheep, cattle, deer and horses): > 2 ppm of herbage dry matter

Cn1c(CCCN=C(N)N)cn2cccc2c1=O [Peramine]
Effect on Argentine stem weevil [3]: feeding deterrent

lolitrem
Effect on Argentine stem weevil [3]: toxic
